1 compound from patent US7893078B2 (priority 2001, dated 2011) can be followed below.

Values joined by “and” are separate entries in the source; they are usually repeats but may differ in a detail not shown here. Equal entries are not always repeated. “Also recorded” adds a separate entry of the source.

For one series, the system named is melanocytic nevi. Briefly: Cyclopamine cream on mole / melanocytic nevi. The class given is in vivo, human. From the text:
(§1) Trichoepithelioma is another tumor associated with genetic changes that cause increased hedgehog-smoothened signalling (Vorechovsky L. et al. (1997) Cancer Res. 57:4677-4681; Nilsson M. et al. (2000) Proc. Natl. Acad. Sci. USA 97:3438-3443).

A further series has as its system trichoepithelioma. The following applies: human, in vivo.
Excerpt: as §1

The subject of series [1] is normal epidermis and hair follicles. Briefly: Normal skin exposed to the same schedule and doses of cyclopamine cream; histology, immunohistochemistry and follow-up. The source says: (§2) The base cream used is made predominantly of heavy paraffin oil (10% w/w), vaseline (10% w/w), stearyl alcohol (8% w/w), polyoxysteareth-40 (3% w/w) and water (68% w/w), but another suitably formulated base cream is also possible. […] Night-time applications, avoided in this schedule because of possible loss of cream from the patient skin to linens during sleep, can be performed by suitable dermal patches.

Series [2] deals with basal cell carcinoma (BCC). The following applies: human, in vivo. As for the experimental part: as §2
Every third hour, about 20 μl cream was applied directly onto the lower half and the upper half was left untreated.
The tumor was then followed up without treatment for a study of the possible late effects. […] For example expression of the cell adhesion molecule CD44 is known to increase upon differentiation of the epidermal basal cells to the upper spinous layer cells (Kooy A J et al (1999) Human Pathology 30:1328-1335).

For `CC1=C2C[C@H]3[C@@H](CC=C4C[C@@H](O)CC[C@@]43C)[C@@H]2CC[C@]12O[C@@H]1C[C@H](C)CN[C@H]1[C@H]2C` [Cyclopamine], in the series on melanocytic nevi (18 mM cyclopamine cream, another volunteer, data not shown), the “Effect on melanocytic nevi” value is “rapid depigmentation and disappearance”. The “Size and pigmentation of mole near treated tumor” value with melanocytic nevi (cyclopamine by diffusion from adjacent application area, 24th hour) was “decreased size and pigmentation”. Moreover, the “Clinical regression of trichoepithelioma” value with trichoepithelioma is listed as “rapid regression”. Moreover, the “Appearance of former skin sites of cyclopamine application at long-term follow-up” value in series [1] (followed up more than 31 months) is “healthy-looking normal skin and hair”. For the same compound, the “Adverse effect on tissues and putative stem cells (histology, cytokeratin 15 and 19, Ber-Ep4)” value in series [1] (normal skin exposed to same schedule and doses as the BCCs) is “no adverse effect”. In series [2], the “% of Cells Labelled with Ber-Ep4” value is reported as 0 ± 0%; the “% of Cells showing ≦ 2 Morphological Signs of Apoptosis on H & E Stained Tissue Sections” value was 20 ± 8% and 18 ± 11%; the “CD44 labelling of residual tumor cells (differentiation marker)” value is reported as “markedly increased, strong labelling of essentially all residual tumor cells”; the “Clinical regression of BCC” value is listed as “rapid clinical regressions; also recorded: rapid regression; also recorded: largely regressed”. In series [2], the “Ki-67 antigen expression (proliferation marker)” value is on record as “no longer expressed” and the “Labelling of residual BCC cells with Ulex Europaeus lectin type 1 (differentiation marker)” value was “heterogenous labelling”.
